Data published in patent US11306100B2, “Spirooxindole compounds as GSK3B inhibitors and process for preparation thereof” (COUNCIL OF SCIENTIFIC & INDUSTRIAL RESEARCH, priority 2017, dated 2022).

Columns and labels:
Assay type in all cases: cell-based
[1] = test system: PANC-1 cells; assay: Cell cycle analysis / cell death by PI uptake, flow cytometry; conditions: for cell death by FACS: 25 uM compound; for cell death (% of cells in subG1): in combination with TRAIL versus compounds alone or TRAIL alone
Method: To determine effect of GSK3β inhibitors on cell death and/or cell cycle progression, PANC-1 cells were treated with identified molecules with or without TRAIL. Upon treatment with compounds in combination with TRAIL, PANC-1 cell death was determined with propidium iodide (PI) uptake measured by Flow cytometry. Treated cells were harvested in cold PBS and fixed in 70% ethanol at −20° C. for overnight. The fixed cells were by centrifugation and re-suspended in PI ([…]) solution containing RNase (0.1 mg/mL) and Triton X-100 (0.05%). The cells were incubated in dark for 1 h at room temperature. The excess PI was washed out using PBS, the resultant PI uptake was analyzed by FACS Caliber System (BD Bio-science, Erembodegem, Belgium) in an FL-2 fluorescence detector (10000 events were recorded for each condition). Flow cytometry data was analyzed using FCS express 4 software (De Novo Software, Los Angeles, Calif., USA).

[2] = test system: PANC-1 cells; assay: Colony formation (soft agar, clonogenic) assay
Method: To determine the efficiency of GSK3β inhibitors in combination with the TRIAL on anchorage independent growth of PANC-1 cells soft agar assay were performed. The base agar (0.5%) was prepared by mixing equal amounts of 1% agar with 2× media (20% FBS and 2× antibiotics) filled in 6-well plate. Simultaneously, PANC-1 cells (14000/well) mixed with 2× media containing different concentrations of identified compounds alone or in combination with TRAIL mixed with 0.7% of sterile agar to achieve final concentration of […] top agar. The cell suspension was spread on solidified base agar. Then the plates were incubated in CO2 incubator for 14 days and the cells were fed with fresh media containing respective concentration and combination of TRIAL every 3 days. Upon termination (after 14 days of incubation) plates were stained with 0.005% of crystal violet for 1 h and excess stain was removed by washing with MQ. The number of blue colonies were counted using olympus Xi71 microscope.

[3] = test system: PANC-1 cells; assay: Cell viability, Sulforhodamine B assay; conditions: for inhibition at 30 µM: Homo sapiens, PANC-1, 30 μM compound in combination with TRAIL (10 ηg/mL), read-out: inhibition of cell growth; for effectiveness against cell growth / sensitisation to TRAIL: in combination with TRAIL (10 ηg/mL), FIG. 3A
Method: Cell viability was measured using Sulforhodamine B assay. The cytotoxic effect of the compounds with GSK3β inhibitory potential was tested against PANC-1 cells. Initially, the PANC-1 cells were seeded in flat bottom 96-well plate (5000 cells/100 μL) in complete medium and cultured for 18 hrs under standard conditions. After 18 h the cells were treated with either the different concentration of compounds, standard drugs or DMSO as solvent control. The final DMSO concentration to cells was maintained <2% in all cytotoxic assays. Each compound was tested in triplicate and the cytotoxicity was determined as the average of that triplicate. Further, the plates were incubated for another 48 h in an incubator maintained at 37° C. with a constant supply of 5% CO2. The cells were fixed using 10% TCA and incubated for 1 h at 4° C. Then the plates were rinsed carefully with MQ water and air dried at room temperature. To all the wells of MTP plate 0.057% SRB solution was added and kept for approximately 30 min before it was rinsed off using 1% acetic acid. The plates were then air dried and 100 μL of 10 mM tris base was added to each well to solubilize the SRB before absorbance was measured at 510 nm. The measure of absorbance is directly proportional to cell growth and is thus used to calculate % reduction in the rate of cell proliferation according to control DMSO treated cells. All experiments were performed in triplicates; mean % age proliferation values with ±SD were plotted here.

[4] = test system: NF-kB activity in PANC-1 cells; assay: NFkB luciferase reporter assay; conditions: 48 h treatment, dose dependent
Method: In order to evaluate the effect of GSK3β inhibition on NF-kB activity, a reporter assay has been performed in the presence of identified inhibitors. To perform reporter assays, PANC-1 cells were cultured in a 48 well plate (16000 cells/well) overnight. Following day, cells were transfected with appropriate amount NF-kB reporter construct using lipofectamine 2000 as per manufacturer's protocol. After 16 hrs of post transfection cells were treated with identified GSK3β inhibitors and positive controls. After 48 h of treatment, cells were harvested in directly 1×ccl buffer. For measuring luciferase activity, 5 μl of cell lysate was mixed with 20 μl of assay reagent containing substrate for luciferase in MTP well plate as per manufacturer's protocol. The luciferase activity was determined by measuring luminescence at wavelengths in multimode reader. The protein concentration of the lysates was estimated by Bradford assay to normalize luciferase activity with protein present in the lysates. Then the relative luciferase activity was calculated according to control cells treated with DMSO set to 1. All experiments were performed in triplicates and the mean values with ±SD are presented here.

[5] = compound in the presence of TRAIL 10 ηg/mL

Structure (SMILES) | cell death by FACS [1] | cell death (% of cells in subG1) [1] | inhibition of colony formation ([2]; compound alone, 14 days) | inhibition of colony formation [2, 5] | inhibition at 30 µM [3] | effectiveness against cell growth / sensitisation to TRAIL [3] | NFkB luciferase activity [4]
CCOC(=O)c1ccc(-c2ccccc2OCc2cn(CC3CC4(CO3)C(=O)Nc3ccccc34)nn2)nc1C (centres unmarked) [AB-O, Ethyl 2-methyl-6-(2-((1-((2′-oxo-4,5-dihydro-2H-spiro[furan-3,3′-indoline]-5-yl)methyl)-1H-1,2,3-triazol-4-yl)methoxy)phenyl)nicotinate] | cell death even at 25 uM | more cell death | dose-dependent inhibition | more effective inhibition of colony formation | 50% | more effective | significantly decreased
COc1ccccc1N1CCN(CC2CC3(CO2)C(=O)Nc2ccccc23)CC1 (centres unmarked) [AB-U, 5-((4-(2-Methoxyphenyl)piperazin-1-yl)methyl)-4,5-dihydro-2H-spiro[furan-3,3′-indolin]-2′-one] | cell death even at 25 uM | more cell death | dose-dependent inhibition | more effective inhibition of colony formation | 50% | more effective | significantly decreased
